Assay results: PubChem BioAssay (NCI)
Where “and” joins values, the source holds several entries; their conditions need not be identical. Equal values may be shown once.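 Test compounds were applied to cells in 96-well plates for 48 hours at 5 doses. GI50 marks 50% less growth. TGI denotes the concentration required for complete inhibition of growth.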

What was measured:
Experiment in all cases: inhibition of tumour cell growth, NCI panel, 48 h
[1] = test system: T-47D breast
[2] = test system: BT-549 breast
[3] = test system: IGROV1 ovarian
[4] = test system: COLO 205 colon
[5] = test system: NCI-H460 lung
[6] = test system: K-562 leukemia
[7] = test system: HL-60(TB) leukemia
[8] = test system: DMS 273 small cell lung
[9] = test system: DLD-1 colon
[10] = test system: KM20L2 colon

Compound	GI50 [1]	TGI [1]	GI50 [2]	TGI [2]	GI50 [3]	TGI [3]	GI50 [4]	TGI [4]	GI50 [5]	TGI [5]	GI50 [6]	TGI [6]	GI50 [7]	TGI [7]	TGI [8]	TGI [9]	TGI [10]
CC1SC(c2ccc(OCc3ccccc3)cc2)N(NC(=O)C(O)(c2ccccc2)c2ccccc2)C1=O (stereo unspecified)	3520 nM	14.9 µM	5.45 µM	22.4 µM	2400 nM	11.5 µM	1980 nM	4.26 µM	3530 nM	12.9 µM	3.36 µM	> 100 µM	1850 nM	5.02 µM			
Nc1c2ccccc2nc2ccccc12	1620 nM and 2990 nM	6.38 µM and 7.61 µM	4.04 µM and 5.12 µM	15.4 µM and 26.2 µM	2120 nM and 3340 nM	6.18 µM and 14 µM	966 nM and 1830 nM	2.36 µM and 4.45 µM	1440 nM and 2500 nM	5.17 µM and 6.88 µM	3.16 µM and 3.06 µM	12.5 µM and 25.1 µM	3050 nM and 1850 nM	6.99 µM and 10 µM			
N#CC1(C2CC(=O)N(c3ccccc3)C2=O)CCCCC1=O (stereo unspecified)						> 100 µM		> 100 µM		> 100 µM		> 100 µM		> 100 µM	> 100 µM	> 100 µM	
CCN(CC)CCN1C(=O)c2cccc3cc(N)cc(c23)C1=O		> 100 µM		40.4 µM		> 100 µM		16.8 µM		18.2 µM		44.2 µM		50.5 µM			
O=C(CC1(O)C(=O)Nc2ccc(Br)cc21)c1cccc([N+](=O)[O-])c1 (stereo unspecified)								> 100 µM		> 100 µM		> 100 µM		67.3 µM	> 100 µM	> 100 µM	> 100 µM
COc1cccc(-c2cc(-c3ccc(Nc4nc(Nc5ccc(Cl)cc5)nc(Nc5ccc(Cl)cc5)n4)cc3)nc(N)c2C#N)c1	1340 nM	3.67 µM	2.44 µM	10.9 µM	1670 nM	4.62 µM	1630 nM	3.39 µM	3740 nM	24.4 µM	1.52 µM	5.53 µM	838 nM	8.23 µM			
COc1cnc2c(c1)C(=O)c1c-2n(CCCN2CCNCC2)c(=O)c2cc(F)ccc12	266 nM	13.2 µM	1.25 µM	4.32 µM	478 nM	2.34 µM	150 nM	1.44 µM	25.2 nM	0.275 µM	0.148 µM	1.44 µM	92.7 nM	0.682 µM			
CCCCP1(=O)C=CC(Cl)=C(C)C1 (stereo unspecified)						> 100 µM		> 100 µM		> 100 µM		> 100 µM		> 100 µM		> 100 µM	> 100 µM
CCn1c(O)c(C(=O)Nc2cccs2)c(=O)n(CC)c1=S						60.9 µM		32.2 µM		34.5 µM		53.6 µM		40 µM		> 100 µM	32.9 µM
CCCN1CCCC(c2ccc(Nc3nc(Nc4cc(F)ccc4C(N)=O)c4cc[nH]c4n3)c(OC)c2)C1 (stereo unspecified)	3550 nM	7.62 µM	3.74 µM	7.4 µM	1470 nM	6.12 µM	15 nM	1.23 µM	116 nM	2.99 µM	0.825 µM	5.59 µM	15.6 nM	4.82 µM			
O=C1C(=C2C(=O)c3ccccc3[N+]2=O)N([O-])c2ccccc21						> 100 µM		33 µM		55.3 µM		50.1 µM		48.5 µM	89.5 µM	88.6 µM	
CC1CC(=O)C(CC(=O)O)[C@H]1C(C(=O)C(=O)Nc1cc(Cl)ccc1Cl)[N+](=O)[O-] (stereo partly specified)						> 100 µM		> 100 µM		> 100 µM		> 100 µM		> 100 µM		> 100 µM	> 100 µM
COc1ccc(Cc2c3cc(OC)c(OC)cc3cc[n+]2C)cc1						> 69.4 µM		> 16.7 µM				> 100 µM		> 100 µM		> 26.9 µM	24.3 µM
CCCCc1c2c([n+]([O-])c3c1CCCC3)CCCC2						> 100 µM		> 100 µM		> 100 µM		> 100 µM		> 100 µM	> 100 µM		> 100 µM
Cc1cc(C)c(CNC(=O)c2cc(Cl)c3c(c2C)O[C@@](C)(C2CCC(N(C)C)CC2)O3)c(=O)[nH]1 (stereo partly specified)	> 100000 nM	> 100 µM	42 µM	> 100 µM	70500 nM	> 100 µM	> 100000 nM	> 100 µM	> 100000 nM	> 100 µM	41.6 µM	> 100 µM	61500 nM	> 100 µM			
